# Results published in patent publication US4912036A, “Rapid differentiation of bacteria using cyclic polypeptide antibiotics” (Eastman Kodak Company, priority 1986, dated 1990).
# Key:
# S. aureus [1] = assay: Inhibition of RIND IX reduction by various cyclic polypeptide antibiotics; type: cell-based, Staphylococcus aureus; settings: 635 nm
# Experimental: The following materials were used in this example: stock solutions of RIND IX compound dispersion prepared as described above, glucose (10% in water), trimethyl-1,4-benzoquinone ETA (1.5 mg/ml methanol), and the antibiotics (1 mg/ml in dimethylsulfoxide). S. aureus cells were grown as described above. The final cell concentration in the assay mixture was about 4.3×10^8 cells/ml.
# Test solutions were prepared by adding in the order: 1.2 ml of HEPES buffer, 50 μl glucose solution, 1.5 ml of RIND IX dispersion, 100 μl of antibiotic solution, 100 μl of cell suspension and 25 μl of ETA solution. Control solutions were prepared as described in Examples 2 and 3. Optical density readings (OD) were measured at 635 nm at 0 minutes and after incubation at 37° C. for 30 minutes for test and control solutions, and the change in density (ΔOD) was determined. Table VI below lists the results, expressed as corrected percent inhibition of the reduction of the RIND compound. The corrected percent inhibition is calculated by dividing the difference between the ΔOD obtained from the Cell Control without antibiotic and the ΔOD of the test solution, by ΔOD of the Cell Control without antibiotic. All readings were corrected by subtracting readings of the appropriate background Controls.
# Solutions containing 2.9 ml HEPES, 50 μl of the antibiotic solution and 100 μl cell solution were incubated at 37° C. for 30 minutes, centrifuged for 10 minutes and decanted. The resulting pellet was then treated with 1.4 ml HEPES, 50 μl glucose solution, 1.5 ml RIND IX dispersion and 25 μl ETA solution, mixed well and the densities recorded as described above in Method 1. The corrected percent inhibition data was calculated as described in Method 1 above.
# P. aeruginosa [2] = assay: MTT reduction solution assay, ΔOD 540 nm; type: cell-based, Pseudomonas aeruginosa; settings: P. aeruginosa (-) 5×10^7, tyrocidin 0.825 mg/ml, 37° C.
# Experimental: (§1) These examples illustrate the differentiation of bacteria using a tetrazolium salt and phenolic dye as the reducible compounds and two cyclic polypeptide antibiotics according to the present invention. The tetrazolium salt was 3-(4,5-dimethyl-2-thiazolyl) -2,5-diphenyl-2H-tetrazolium bromide (MTT) which forms a colored formazan dye when reduced. The phenolic dye was 2,6-dichloroindophenol (DCIP) which forms a colorless species when reduced.
# (§2) Solutions of the reducible compounds were prepared with the following: HEPES buffer (3 ml, 0.05 molar, pH 7.5), TRITON X-100 nonionic surfactant (1% concentration), glucose (50 μl of 10% in water), tryptose (50 μl of a 10% solution in water), MTT (25 μl of 5 mg/ml methanol) or DCIP (25 μl of 3 mg/ml methanol) and phenazine methosultate ETA (25 μl of 3 mg/ml methanol).
# (§3) Test solutions were prepared from the following: reducible compound solution from above (200 μl), 50 μl of either gramicidin S solution (6 mg/ml methanol and 9 ml of buffer) or tyrocidin solution (100 mg/ml methanol and 8 ml of buffer) and 50 μl of cell suspension. […] The change in optical density (ΔOD) was determined after 30 minutes at 37° C. at 540 nm for the MTT assay and at 620 nm for the DCIP assay using a commercially available spectrophotometer.
# E. cloacae [3] = assay: RIND XXIX reduction solution assay, Δ fluorescence; type: cell-based, Enterobacter cloacae; settings: E. cloacae (gram -) about 5×10^7 cells/ml, tyrocidin 3.3 mg/ml, 37° C.
# Experimental: (§4) Bacterial suspensions were prepared by growing the cells in BHT broth to stationary phase overnight at 37° C. P. auruginosa was grown with agitation. About 40 ml of each overnight culture was centrifuged, decanted and washed once with 0.05 molar potassium phosphate buffer or 0.05 molar N-2-hydroxy-ethylpiperazine-N'-2-ethanesulfonic acid (HEPES) buffer, pH 7.8, and resuspended in buffer.
# (§5) Dispersions containing RIND compounds were prepared by dissolving the RIND compound in N,N-dimethylformamide (DMF) at 16 mg compound per ml of solvent. An aliquot (250 μl) of the resulting solution was added to 500 μl of TRITON X-100 surfactant. This mixture was then added dropwise with stirring to 25 ml of 0.05 molar HEPES buffer. A dispersion of RIND XXIX was prepared similarly except that DMF was acidified with 0.1% sulfuric acid. Compositions containing water-compatible RIND compounds were prepared as described above except the surfactant was omitted.
# (§6) Each test solution contained the following: dispersion of RIND XXIX (25 μl) prepared as described above, glucose (400 μl of 10% aqueous solution), tryptose (400 μl of 10% aqueous solution), trimethyl-1,4-benzoquinone ETA (500 μl of 1.5 mg/ml methanol). Aliquots (200 μl) of the mixture were mixed with solutions of the antibiotics (50 μl). The cell suspensions (50 μl) were then added. The final concentration of gramcidin S and tyrocidin were 0.1 mg/ml and 3.3 mg/ml, respectively. The final cell concentration was about 5×10^7 cells/ml. Cell control solutions contained all reagents except antibiotics. Background controls consisted of both buffer and solution controls. […]
# (§7) The solutions were incubated at 37° C. for 30 minutes, and the change in fluorescence emission (Δ fluorescence) was determined as the difference between the readings taken when the solutions were first mixed and then after 30 minutes incubation. Measurements were made in a commercially available MICROFLUOR Reader (available from Dynatech Laboratories, Alexandria, Virginia, U.S.A.), modified with an excitation filter at 540 nm, an emission filter at 620 nm and a Xenon lamp. […]
# E. cloacae [4] = assay: DCIP reduction solution assay, ΔOD 620 nm; type: cell-based, Enterobacter cloacae; settings: E. cloacae (-) 5×10^7, tyrocidin 0.825 mg/ml, 37° C.
# Experimental: as §1, §2, §3
# P. vulgaris [5] = assay: MTT reduction solution assay, ΔOD 540 nm; type: cell-based, Proteus vulgaris; settings: P. vulgaris (-) 5×10^7, tyrocidin 0.825 mg/ml, 37° C.
# Experimental: as §1, §2, §3
# P. aeruginosa [6] = assay: RIND XXIX reduction solution assay, Δ fluorescence; type: cell-based, Pseudomonas aeruginosa; settings: P. aeruginosa (gram -) about 5×10^7 cells/ml, tyrocidin 3.3 mg/ml, 37° C.
# Experimental: as §4, §5, §6, §7
# P. vulgaris [7] = assay: RIND XXIX reduction solution assay, Δ fluorescence; type: cell-based, Proteus vulgaris; settings: P. vulgaris (gram -) about 5×10^7 cells/ml, tyrocidin 3.3 mg/ml, 37° C.
# Experimental: as §4, §5, §6, §7
# P. aeruginosa [8] = assay: DCIP reduction solution assay, ΔOD 620 nm; type: cell-based, Pseudomonas aeruginosa; settings: P. aeruginosa (-) 5×10^7, tyrocidin 0.825 mg/ml, 37° C.
# Experimental: as §1, §2, §3
# K. pneumoniae [9] = assay: RIND XXIX reduction solution assay, Δ fluorescence; type: cell-based, Klebsiella pneumoniae; settings: K. pneumoniae (gram -) about 5×10^7 cells/ml, tyrocidin 3.3 mg/ml, 37° C.
# Experimental: as §4, §5, §6, §7
# P. vulgaris [10] = assay: DCIP reduction solution assay, ΔOD 620 nm; type: cell-based, Proteus vulgaris; settings: P. vulgaris (-) 5×10^7, tyrocidin 0.825 mg/ml, 37° C.
# Experimental: as §1, §2, §3
# S. aureus [11] = assay: DCIP reduction solution assay, ΔOD 620 nm; type: cell-based, Staphylococcus aureus; settings: S. aureus (+) 5×10^7, tyrocidin 0.825 mg/ml, 37° C.
# Experimental: as §1, §2, §3
# S. aureus [12] = assay: MTT reduction solution assay, ΔOD 540 nm; type: cell-based, Staphylococcus aureus; settings: S. aureus (+) 5×10^7, tyrocidin 0.825 mg/ml, 37° C.
# Experimental: as §1, §2, §3
# S. faecalis [13] = assay: MTT reduction solution assay, ΔOD 540 nm; type: cell-based, Streptococcus faecalis; settings: S. faecalis (+) 5×10^7, tyrocidin 0.825 mg/ml, 37° C.
# Experimental: as §1, §2, §3
# K. pneumoniae [14] = assay: DCIP reduction solution assay, ΔOD 620 nm; type: cell-based, Klebsiella pneumoniae; settings: K. pneumoniae (-) 5×10^7, tyrocidin 0.825 mg/ml, 37° C.
# Experimental: as §1, §2, §3
# K. pneumoniae [15] = assay: MTT reduction solution assay, ΔOD 540 nm; type: cell-based, Klebsiella pneumoniae; settings: K. pneumoniae (-) 5×10^7, tyrocidin 0.825 mg/ml, 37° C.
# Experimental: as §1, §2, §3
# E. coli [16] = assay: RIND XXIX reduction solution assay, Δ fluorescence; type: cell-based, Escherichia coli; settings: E. coli (gram -) about 5×10^7 cells/ml, tyrocidin 3.3 mg/ml, 37° C.
# Experimental: as §4, §5, §6, §7
# S. aureus [17] = assay: RIND XXIX reduction solution assay, Δ fluorescence; type: cell-based, Staphylococcus aureus; settings: S. aureus (gram +) about 5×10^7 cells/ml, tyrocidin 3.3 mg/ml, 37° C.
# Experimental: as §4
# (§8) Dispersions containing RIND compounds were prepared by dissolving the RIND compound in N,N-dimethylformamide (DMF) at 16 mg compound per ml of solvent. An aliquot (250 μl) of the resulting solution was added to 500 μl of TRITON X-100 surfactant. This mixture was then added dropwise with stirring to 25 ml of 0.05 molar HEPES buffer. A dispersion of RIND XXIX was prepared similarly except that DMF was acidified with 0.1% sulfuric acid. […]
# (§9) The solutions were incubated at 37° C. for 30 minutes, and the change in fluorescence emission (Δ fluorescence) was determined as the difference between the readings taken when the solutions were first mixed and then after 30 minutes incubation. Measurements were made in a commercially available MICROFLUOR Reader (available from Dynatech Laboratories, Alexandria, Virginia, U.S.A.), modified with an excitation filter at 540 nm, an emission filter at 620 nm and a Xenon lamp.
# [18] = tested on: viable gram-positive and gram-negative bacteria; assay: Differentiation in RIND XXIX solution assays, overall result; type: cell-based; settings: gramicidin S 0.1 mg/ml, tyrocidin 3.3 mg/ml
# Experimental: Each test solution contained the following: dispersion of RIND XXIX (25 μl) prepared as described above, glucose (400 μl of 10% aqueous solution), tryptose (400 μl of 10% aqueous solution), trimethyl-1,4-benzoquinone ETA (500 μl of 1.5 mg/ml methanol). Aliquots (200 μl) of the mixture were mixed with solutions of the antibiotics (50 μl). The cell suspensions (50 μl) were then added. The final concentration of gramcidin S and tyrocidin were 0.1 mg/ml and 3.3 mg/ml, respectively. The final cell concentration was about 5×10^7 cells/ml. Cell control solutions contained all reagents except antibiotics. Background controls consisted of both buffer and solution controls. The buffer control contained all reagents except antibiotics and cells. The solution control contained all reagents except cells.
# as §9
# This example illustrates the practice of this invention to identify a Proteus species in solution. Test solutions and cell control solutions were prepared and tested as described in Example 2 and 3 except that polymixin B was used at 0.01 mg/ml of methanol. The final cell concentration was about 5×10^7 cells/ml.
# E. coli [19] = assay: DCIP reduction solution assay, ΔOD 620 nm; type: cell-based, Escherichia coli; settings: E. coli (-) 5×10^7, tyrocidin 0.825 mg/ml, 37° C.
# Experimental: as §1, §2, §3
# S. faecalis [20] = assay: RIND XXIX reduction solution assay, Δ fluorescence; type: cell-based, Streptococcus faecalis; settings: S. faecalis (gram +) about 5×10^7 cells/ml, tyrocidin 3.3 mg/ml, 37° C.
# Experimental: as §4, §8, §9
# S. faecalis [21] = assay: DCIP reduction solution assay, ΔOD 620 nm; type: cell-based, Streptococcus faecalis; settings: S. faecalis (+) 5×10^7, tyrocidin 0.825 mg/ml, 37° C.
# Experimental: as §1, §2, §3
# E. cloacae [22] = assay: MTT reduction solution assay, ΔOD 540 nm; type: cell-based, Enterobacter cloacae; settings: E. cloacae (-) 5×10^7, tyrocidin 0.825 mg/ml, 37° C.
# Experimental: as §1, §2, §3
# E. coli [23] = assay: MTT reduction solution assay, ΔOD 540 nm; type: cell-based, Escherichia coli; settings: E. coli (-) 5×10^7, tyrocidin 0.825 mg/ml, 37° C.
# Experimental: as §1, §2, §3
substance,measurement,setting,value
ristocetin,Corrected % Inhibition,"S. aureus [1]; Test Method 1 (antibiotic in the test solution), S. aureus about 4.3×10^8 cells/ml, 100 μl of 1 mg/ml antibiotic solution, 30 minutes at 37° C.",No Inhibition
tyrocidin,"ΔOD, 540 nm after 30 Minutes",P. aeruginosa [2],0.692
same,Δ Fluorescence (30 Minutes),E. cloacae [3],> 4000
same,"ΔOD, 620 nm after 30 Minutes",E. cloacae [4],0.999
same,"ΔOD, 540 nm after 30 Minutes",P. vulgaris [5],0.778
same,Δ Fluorescence (30 Minutes),P. aeruginosa [6],> 4000
same,Δ Fluorescence (30 Minutes),P. vulgaris [7],> 4000
same,"ΔOD, 620 nm after 30 Minutes",P. aeruginosa [8],0.983
same,Δ Fluorescence (30 Minutes),K. pneumoniae [9],> 4000
same,"ΔOD, 620 nm after 30 Minutes",P. vulgaris [10],0.941
same,"ΔOD, 620 nm after 30 Minutes",S. aureus [11],0.074
same,"ΔOD, 540 nm after 30 Minutes",S. aureus [12],0.113
same,"ΔOD, 540 nm after 30 Minutes",S. faecalis [13],0.048
same,"ΔOD, 620 nm after 30 Minutes",K. pneumoniae [14],0.819
same,"ΔOD, 540 nm after 30 Minutes",K. pneumoniae [15],0.842
same,Δ Fluorescence (30 Minutes),E. coli [16],> 4000
same,Δ Fluorescence (30 Minutes),S. aureus [17],1834
same,"differentiation between viable gram-positive and gram-negative bacteria, in words",[18],can be used with RIND XXIX to differentiate between viable gram-positive and gram-negative bacteria
same,"ΔOD, 620 nm after 30 Minutes",E. coli [19],1.054
same,Δ Fluorescence (30 Minutes),S. faecalis [20],0880
same,"ΔOD, 620 nm after 30 Minutes",S. faecalis [21],0.048
same,"ΔOD, 540 nm after 30 Minutes",E. cloacae [22],0.748
same,"ΔOD, 540 nm after 30 Minutes",E. coli [23],1.207
virginiamycin,Corrected % Inhibition,"S. aureus [1]; Test Method 2 (cells preincubated with 50 μl antibiotic solution 30 minutes, centrifuged, pellet assayed), S. aureus",No Inhibition
